# Article PMC11614538, “The proline-rich antimicrobial peptide B7-005: low bacterial resistance, safe for human cells and effective in zebrafish embryo bacteraemia model” (Open Biology, 2024)
# Residues, ends and D or L forms follow the SMILES beside them.
# Columns and labels:
# [1] = system: zebrafish larvae infection model; settings: simultaneous injection of pathogens and peptide versus post-infection administration; ref [40]; cited from earlier work
# Text: In the current work, the infection of zebrafish larvae with E. coli and their treatment with B7-005 were strictly controlled performing them by microinjection in the Cuvier duct. […] To better ...
# [2] = system: E. coli ATCC 25922; assay: microbe, parasite or virus in culture; settings: for MIC: Escherichia coli, ATCC25922; for MIC after 14th passage: 14 daily passages at one-half MIC, 18 h
# Procedure: Escherichia coli ATCC 25922 was purchased from the American Type Culture Collection (ATCC) (Manassas, Virginia, USA) and stored at −80°C as glycerol stock until use. Bacterial cultures were grown overnight in sterile Müller–Hinton broth (MHB) (Difco Inc.) at 37°C under agitation (140 r.p.m.). The next day, the cultures were diluted 1 : 30 in new MHB and incubated as described above for about 2 h (mean logarithmic phase) until they reached an optical density at 600 nm of about 0.3 and then diluted in fresh MHB to the desired concentrations.
# The effects of human serum on the antimicrobial activity of B7-005 were assessed by performing a minimum inhibitory concentration (MIC) assay with some modifications. Non-heat-inactivated human serum (Merk Life Science S.r.l., USA) was diluted to 50%, 40%, 30%, 25%, and 20% (v/v) in MHB and the solutions were aliquoted into the wells of a round-bottomed 96-well microtitre plate (Sarstedt, Milan, Italy). Samples with no serum were used for comparison. B7-005 was diluted in MHB added with the proper amount of serum to a concentration of 128 μM, added to the first column of the plate and serially diluted twofold in MHB, added with the proper amount of serum, in the subsequent wells in a final volume of 50 μl. Then 50 μl of a mid-log suspension of 5 × 10^5 CFU ml^−1 E. coli ATCC 25922 cells prepared in MHB added with the proper amount of serum was added to each well of the plate, halving the final concentration of bacteria and peptide. The plate was incubated at 37°C for 18 h. The MIC value was calculated as the lowest concentration of the compound resulting in complete inhibition of visible bacterial growth. MIC values were determined by performing at least three independent experiments (n ≥ 3).
# The resistance selection assay was performed by modifying a previously described method. First, the MIC values of each antimicrobial compound (PrAMP or antibiotic) against E. coli ATCC 25922 were determined and recorded as described above. Serial sub-culturing was started by harvesting bacterial cells growing at one-half MIC and inoculating them into fresh MHB. […] This inoculum was incubated o/n and subjected to another MIC test. After 18 h of incubation, the cells growing at one-half MIC were harvested and used for another similar MIC assay. The process was repeated for 7 or 14 daily passages.
molecule,measurement,setting,value
"Bac5: another PrAMP previously used in a zebrafish larvae infection model (RFRPPIRRPPIRPPFYPPFRPPIRPPIFPPIRPPFRPPLGPFP; Bactenecin 5; UniProt P19660 131-173, looked up)",efficacy in zebrafish larvae infection model,[1],only effective when the pathogens and peptide were simultaneously injected
colistin,MIC during serial passaging,[2]; throughout the complete serial passaging process,remained substantially unchanged
CO[C@H]1/C=C/O[C@@]2(C)Oc3c(C)c(O)c4c(O)c(c(/C=N/N5CCN(C)CC5)c(O)c4c3C2=O)NC(=O)/C(C)=C\C=C\[C@H](C)[C@H](O)[C@@H](C)[C@@H](O)[C@@H](C)[C@H](OC(C)=O)[C@@H]1C [rifampicin],MIC,[2],1020 µM
same,fold increase in MIC,[2]; after 4 passages at one-half MIC,64 fold
O=C(N[C@H](CO)[C@H](O)c1ccc([N+](=O)[O-])cc1)C(Cl)Cl [chloramphenicol],MIC,[2],1020 µM
same,fold increase in MIC,[2]; after 8 passages at one-half MIC,64 fold
CC[C@H](C)[C@H](NC(=O)[C@H](CCCNC(=N)N)NC(=O)[C@@H](N)CCCNC(=N)N)C(=O)N[C@@H](CCCNC(=N)N)C(=O)N1CCC[C@H]1C(=O)N[C@@H](CCCNC(=N)N)C(=O)N1CCC[C@H]1C(=O)N1CCC[C@H]1C(=O)N[C@@H](CCCNC(=N)N)C(=O)N[C@@H](CC(C)C)C(=O)N1CCC[C@H]1C(=O)N[C@@H](CCCNC(=N)N)C(=O)N1CCC[C@H]1C(=O)N[C@@H](CCCNC(=N)N)C(=O)N1CCC[C@H]1C(=O)N[C@@H](CCCNC(=N)N)C(=O)O [Bac7(1-16)] (H-RRIRPRPPRLPRPRPR-OH),MIC after 14th passage,[2]; MHB,128 µM
CC[C@H](C)[C@H](NC(=O)[C@H](CCCNC(=N)N)NC(=O)[C@@H](N)CCCNC(=N)N)C(=O)N[C@@H](CCCNC(=N)N)C(=O)N1CCC[C@H]1C(=O)N[C@@H](CCCNC(=N)N)C(=O)N1CCC[C@H]1C(=O)N1CCC[C@H]1C(=O)N[C@@H](CCCNC(=N)N)C(=O)N[C@@H](CC(C)C)C(=O)N1CCC[C@H]1C(=O)N[C@@H](CCCNC(=N)N)C(=O)N1CCC[C@H]1C(=O)N[C@@H](CCCNC(=N)N)C(=O)N1CCC[C@H]1C(=O)N[C@@H](CCCNC(=N)N)C(=O)N1CCC[C@H]1C(=O)N[C@@H](CC(C)C)C(=O)N1CCC[C@H]1C(=O)N[C@@H](Cc1ccccc1)C(=O)N1CCC[C@H]1C(=O)N[C@@H](CCCNC(=N)N)C(=O)N1CCC[C@H]1C(=O)NCC(=O)N1CCC[C@H]1C(=O)N[C@@H](CCCNC(=N)N)C(=O)N1CCC[C@H]1C(=O)N[C@H](C(=O)N1CCC[C@H]1C(=O)N[C@@H](CCCNC(=N)N)C(=O)N1CCC[C@H]1C(=O)N[C@@H](CC(C)C)C(=O)N1CCC[C@H]1C(=O)N[C@@H](Cc1ccccc1)C(=O)N1CCC[C@H]1C(=O)O)[C@@H](C)CC [Bac7(1-35)] (H-RRIRPRPPRLPRPRPRPLPFPRPGPRPIPRPLPFP-OH; N-terminus and C-terminus assumed),MIC after 14th passage,[2]; MHB,128 µM
same,passage (cycle) after which MIC started to increase,"[2]; serial passages at one-half MIC, MHB",5
